Measured values: patent US20110030077A1, “METHODS OF MODULATING THE ORGANIC SOLUTE AND STEROID TRANSPORTER (OSTalpha-OSTbeta) ACTIVITY AND TREATING ASSOCIATED CONDITIONS” (UNIVERSITY OF ROCHESTER, priority 2009, published 2011)

Assays:
[1] = intraileal injection
Method: [^3H]Estrone 3-sulfate, 0.005 μmol/100 μl, was injected directly into the ileal lumen of Ostα^+/+ and Ostα^−/− male (FIG. 18C) and female (FIG. 18D) mice. Tissues were collected for analysis of radioactivity after 30 min.
Mice that had been fed ad libitum were anesthetized by intraperitoneal administration of pentobarbital sodium (50 mg/kg) and additional anesthetic was administered as required for the duration of the experiment. […] At the end of the experiments, 150-300 μl of blood was collected from the abdominal aorta in a tared 1 ml syringe containing 50 μl of heparin (1000 U/ml). The small intestine was removed and segmented into 3 parts, where the first third after the stomach comprised the duodenum, the middle third the jejunum, and the section before the ileo-ceco-colic junction comprised the ileum. Colon, liver, gallbladder, kidney and the urinary bladder were also removed and weighed. The contents of the small intestine, colon, gallbladder and urinary bladder were included in the analysis. For the liver, approximately 0.2-0.4 g of tissue was taken for analysis of radioisotope content. Tissue and blood samples were placed in tared 20-ml glass vials, and Solvable (Perkin-Elmer, Life and Analytical Sciences, Boston, Mass.) was added to each vial (1.0 ml/0.1 g tissue or 2.0 ml/1.0 ml blood), which was then heated to 60° C. for 2 to 3 h. The vials were allowed to cool to room temperature, and 0.1 ml of 0.1 M EDTA/1.0 ml of Solvable was added to each vial of blood. H2O2 (30%) was then added in 0.1-ml aliquots (0.3 ml/1.0 ml Solvable for blood or 0.1 ml/1.0 ml Solvable for tissues). After standing at room temperature for 15 to 30 min, the vials were capped tightly and heated to 60° C. for 1 h and allowed to cool back to room temperature. After the addition of scintillation fluid (4 ml of Opti-Fluor to 200 μl of each sample) (Perkin-Elmer, Life and Analytical Sciences, Boston, Mass.), the samples were allowed to stand for at least 2 h at room temperature before counting. Samples were counted in a Beckman LS 6500 scintillation counter (Beckman Coulter, Fullerton, Calif.). […]

Ostα-YN (mouse) = experiment: cell-based or functional assay
Chain of Ostα-YN (mouse) (Q8R000 whole entry): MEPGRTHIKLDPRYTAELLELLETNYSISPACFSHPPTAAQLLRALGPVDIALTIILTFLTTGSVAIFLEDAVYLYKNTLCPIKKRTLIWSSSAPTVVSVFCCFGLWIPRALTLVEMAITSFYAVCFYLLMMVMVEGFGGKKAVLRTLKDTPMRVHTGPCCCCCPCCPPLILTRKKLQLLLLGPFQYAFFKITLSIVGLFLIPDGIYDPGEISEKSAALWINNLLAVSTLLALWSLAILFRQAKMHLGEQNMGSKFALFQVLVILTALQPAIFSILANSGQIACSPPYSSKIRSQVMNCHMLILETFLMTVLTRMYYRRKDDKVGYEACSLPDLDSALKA

## C[C@H](CCC(=O)NCCS(=O)(=O)O)[C@H]1CC[C@H]2[C@@H]3[C@H](O)C[C@@H]4C[C@H](O)CC[C@]4(C)[C@H]3C[C@H](O)[C@]12C [taurocholate, taurocholic acid]
[1]; wild type mice, 15 min
  absorption from the ileum: > 90%

## Ostβ29-53-YC (peptide)
Ostα-YN (mouse)
  [3H]taurocholate transport in cells co-transfected with Ostα-YN and Ostβ-YC: 30%

## estrone 3-sulfate [estrone sulfate]
[1]; Ostα−/− mice, 30 min
  fraction absorbed from the ileum: 20-30%
[1]; wild type mice, 30 min
  removed from the ileum: 60-70%
